Test results: US9556190B2, “Piperidinyloxy lactone orexin receptor antagonists” (MERCK SHARP & DOHME CORP., priority 2013, dated 2017)

Legend:
hOX1R = hOX1R (Homo sapiens, UniProt O43613); assay: FLIPR Ca2+ Flux Assay, CHO cells expressing orexin-1 receptor; type: cell-based; settings: 70 pM Ala-6,12 orexin-A agonist
human orexin-2 receptor = human orexin-2 receptor (Homo sapiens (Human), UniProt O43614); assay: FLIPR Ca2+ Flux Assay, CHO cells expressing orexin-2 receptor; type: cell-based; settings: 70 pM Ala-6,12 orexin-A agonist, read-out: hOX2R FLIPR IC50
Method: The utility of the compounds in accordance with the present invention as orexin receptor OX1R and/or OX2R antagonists may be readily determined without undue experimentation by methodology well known in the art, including the “FLIPR Ca^2+ Flux Assay” (Okumura et al., Biochem. Biophys. Res. Comm. 280:976-981, 2001). In a typical experiment the OX1 and OX2 receptor antagonistic activity of the compounds of the present invention was determined in accordance with the following experimental method. For intracellular calcium measurements, Chinese hamster ovary (CHO) cells expressing the rat orexin-1 receptor or the human orexin-2 receptor, are grown in Iscove's modified DMEM containing 2 mM L-glutamine, […], 1% hypoxanthine-thymidine supplement, 100 U/ml penicillin, 100 μg/ml streptomycin and 10% heat-inactivated fetal calf serum (FCS). The cells are seeded at 20,000 cells/well into Becton-Dickinson black 384-well clear bottom sterile plates coated with poly-D-lysine. All reagents were from GIBCO-Invitrogen Corp. The seeded plates are incubated overnight at 37° C. and 5% CO2. Ala-6,12 human orexin-A as the agonist is prepared as a 1 mM stock solution in 1% bovine serum albumin (BSA) and diluted in assay buffer (HBSS containing 20 mM HEPES, 0.1% BSA and 2.5 mM probenecid, pH7.4) for use in the assay at a final concentration of 70 pM. Test compounds are prepared as 10 mM stock solution in DMSO, then diluted in 384-well plates, first in DMSO, then assay buffer. On the day of the assay, cells are washed 3 times with 100 μl assay buffer and then incubated for 60 min (37° C., 5% CO2) in 60 μl assay buffer containing 1 μM Fluo-4AM ester, 0.02% pluronic acid, and 1% BSA. The dye loading solution is then aspirated and cells are washed 3 times with 100 μl assay buffer. 30 μl of that same buffer is left in each well. Within the Fluorescent Imaging Plate Reader (FLIPR, Molecular Devices), test compounds are added to the plate in a volume of 25 μl, incubated for 5 min and finally 25 μl of agonist is added. Fluorescence is measured for each well at 1 second intervals for 5 minutes and the height of each fluorescence peak is compared to the height of the fluorescence peak induced by 70 pM Ala-6,12 orexin-A with buffer in place of antagonist. For each antagonist, IC50 value (the concentration of compound needed to inhibit 50% of the agonist response) is determined. Alternatively, compound potency can be assessed by a radioligand binding assay (described in Bergman et. al. Bioorg. Med. Chem. Lett. 2008, 18, 1425-1430) in which the inhibition constant (Ki) is determined in membranes prepared from CHO cells expressing either the OX1 or OX2 receptor. The intrinsic orexin receptor antagonist activity of a compound which may be used in the present invention may be determined by these assays.

Chain of human orexin-2 receptor (O43614 whole entry): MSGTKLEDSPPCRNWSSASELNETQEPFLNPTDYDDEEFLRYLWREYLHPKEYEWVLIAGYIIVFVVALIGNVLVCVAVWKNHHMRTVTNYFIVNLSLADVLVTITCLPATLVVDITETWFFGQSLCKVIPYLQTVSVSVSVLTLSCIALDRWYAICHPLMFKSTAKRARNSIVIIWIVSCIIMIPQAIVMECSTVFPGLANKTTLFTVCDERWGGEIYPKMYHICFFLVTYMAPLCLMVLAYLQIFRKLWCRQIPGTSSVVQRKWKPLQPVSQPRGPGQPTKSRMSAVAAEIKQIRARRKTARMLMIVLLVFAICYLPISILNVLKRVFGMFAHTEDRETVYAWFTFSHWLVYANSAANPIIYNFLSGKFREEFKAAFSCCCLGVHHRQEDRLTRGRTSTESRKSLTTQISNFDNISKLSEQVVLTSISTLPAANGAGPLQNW

C[C@@H]1CC[C@@H](Oc2nccc3c2C(=O)OC3(C)C)CN1C(=O)c1ccsc1-n1nccn1 [Example 20, 1,1-Dimethyl-4-{[(3R,6R)-6-methyl-1-{[2-(2H-1,2,3-triazol-2-yl)thiophen-3-yl]carbonyl}piperidin-3-yl]oxy}furo[3,4-c]pyridin-3(1H)-one]
IC50 (hOX1R): 10000 nM
IC50 (human orexin-2 receptor): 39 nM

C[C@@H]1CC[C@@H](Oc2nccc3c2C(=O)OC3(C)C)CN1C(=O)c1ccccc1-n1ncnn1 [Example 21, 1,1-Dimethyl-4-{[(3R,6R)-6-methyl-1-{[2-(2H-tetrazol-2-yl)phenyl]carbonyl}piperidin-3-yl]oxy}furo[3,4-c]pyridin-3(1H)-one]
IC50 (hOX1R): 10000 nM
IC50 (human orexin-2 receptor): 109 nM

C[C@@H]1CC[C@@H](Oc2nccc3c2C(=O)OC3(C)C)CN1C(=O)c1ccccc1-c1ncccn1 [Example 22, 1,1-Dimethyl-4-{[(3R,6R)-6-methyl-1-{[2-(pyrimidin-2-yl)phenyl]carbonyl}piperidin-3-yl]oxy}furo[3,4-c]pyridin-3(1H)-one]
IC50 (hOX1R): 3260 nM
IC50 (human orexin-2 receptor): 76 nM

C[C@@H]1CC[C@@H](Oc2nccc3c2C(=O)OC3(C)C)CN1C(=O)c1ccc(F)cc1-c1ncccn1 [Example 23, 4-({(3R,6R)-1-[(4-fluoro-2-pyrimidin-2-ylphenyl)carbonyl]-6-methylpiperidin-3-yl}oxy)-1,1-dimethylfuro[3,4-c]pyridin-3(1H)-one]
IC50 (hOX1R): 10000 nM
IC50 (human orexin-2 receptor): 420 nM

C[C@@H]1CC[C@@H](Oc2nccc3c2C(=O)OC3(C)C)CN1C(=O)c1cc(F)ccc1-c1ncccn1 [Example 24, 4-({(3R,6R)-1-[(5-fluoro-2-pyrimidin-2-ylphenyl)carbonyl]-6-methylpiperidin-3-yl}oxy)-1,1-dimethylfuro[3,4-c]pyridin-3(1H)-one]
IC50 (hOX1R): 10000 nM
IC50 (human orexin-2 receptor): 72 nM

C[C@@H]1CC[C@@H](Oc2nccc3c2C(=O)OC3(C)C)CN1C(=O)c1ccsc1-c1ncccn1 [Example 25, 1,1-dimethyl-4-(((3R,6R)-6-methyl-1-(2-(pyrimidin-2-yl)thiophene-3-carbonyl)piperidin-3-yl)oxy)furo[3,4-c]pyridin-3(1H)-one]
IC50 (hOX1R): 9110 nM
IC50 (human orexin-2 receptor): 44 nM

C[C@@H]1CC[C@@H](Oc2nccc3c2C(=O)OC3(C)C)CN1C(=O)c1c(F)cccc1-c1ncccn1 [Example 26, 4-({(3R,6R)-1-[(2-fluoro-6-pyrimidin-2-ylphenyl)carbonyl]-6-methylpiperidin-3-yl}oxy)-1,1-dimethylfuro[3,4-c]pyridin-3(1H)-one]
IC50 (hOX1R): 10000 nM
IC50 (human orexin-2 receptor): 109 nM

C[C@@H]1CC[C@@H](Oc2nccc3c2C(=O)OC3(C)C)CN1C(=O)c1cccc(F)c1-c1ncccn1 [Example 27, 4-({(3R,6R)-1-[(3-fluoro-2-pyrimidin-2-ylphenyl)carbonyl]-6-methylpiperidin-3-yl}oxy)-1,1-dimethylfuro[3,4-c]pyridin-3(1H)-one]
IC50 (hOX1R): 10000 nM
IC50 (human orexin-2 receptor): 139 nM

C[C@@H]1CC[C@@H](Oc2nccc3c2COC3=O)CN1C(=O)c1ccccc1-n1nccn1 [Example 28, 4-{[(3R,6R)-6-Methyl-1-{[2-(2H-1,2,3-triazol-2-yl)phenyl]carbonyl}piperidin-3-yl]oxy}furo[3,4-c]pyridin-1(3H)-one]
IC50 (hOX1R): 4670 nM
IC50 (human orexin-2 receptor): 16 nM

C[C@@H]1CC[C@@H](Oc2nccc3c2COC3=O)CN1C(=O)c1ccsc1-n1nccn1 [Example 29, 4-{[(3R,6R)-6-methyl-1-{[2-(2H-1,2,3-triazol-2-yl)thiophen-3-yl]carbonyl}piperidin-3-yl]oxy}furo[3,4-c]pyridin-1(3H)-one]
IC50 (hOX1R): 3160 nM
IC50 (human orexin-2 receptor): 16 nM

C[C@@H]1CC[C@@H](Oc2nccc3c2COC3=O)CN1C(=O)c1cscc1-n1nccn1 [Example 30, 4-{[(3R,6R)-6-methyl-1-{[4-(2H-1,2,3-triazol-2-yl)-thiophen-3-yl]car-bonyl}piperidin-3-yl]oxy}furo[3,4-c]pyridin-1(3H)-one]
IC50 (hOX1R): 10000 nM
IC50 (human orexin-2 receptor): 26 nM

C[C@@H]1CC[C@@H](Oc2nccc3c2COC3=O)CN1C(=O)c1ccccc1C1(C#N)CC1 [Example 31, 1-[2-({(2R,5R)-2-methyl-5-[(1-oxo-1,3-dihydrofuro[3,4-c]pyridin-4-yl)oxy]-piperidin-1-yl}-carbonyl)-phenyl]cyclo-propane-carbonitrile]
IC50 (hOX1R): 1780 nM
IC50 (human orexin-2 receptor): 12 nM

C[C@@H]1CC[C@@H](Oc2nccc3c2COC3=O)CN1C(=O)c1ccc(F)cc1-n1nccn1 [Example 32, 4-{[(3R,6R)-1-{[4-fluoro-2-(2H-1,2,3-triazol-2-yl)phenyl]-carbonyl}-6-methyl-piperidin-3-yl]oxy}furo[3,4-c]pyridin-1(3H)-one]
IC50 (hOX1R): 8290 nM
IC50 (human orexin-2 receptor): 15 nM

C[C@@H]1CC[C@@H](Oc2nccc3c2COC3=O)CN1C(=O)c1ccccc1CS(C)(=O)=O [Example 33, 4-{[(3R,6R)-6-methyl-1-({2-[(methyl-sulfonyl)methyl]-phenyl}carbonyl)-piperidin-3-yl]oxy}furo[3,4-c]pyridin-1(3H)-one]
IC50 (hOX1R): ≥ 10000 nM
IC50 (human orexin-2 receptor): 20 nM

C[C@@H]1CC[C@@H](Oc2nccc3c2COC3=O)CN1C(=O)c1ccccc1-n1ncnn1 [Example 34, 4-{[(3R,6R)-6-methyl-1-{[2-(2H-tetrazol-2-yl)phenyl]carbonyl}-piperidin-3-yl]oxy}-furo[3,4-c]pyridin-1(3H)-one]
IC50 (hOX1R): 10000 nM
IC50 (human orexin-2 receptor): 30 nM

C[C@@H]1CC[C@@H](Oc2nccc3c2COC3=O)CN1C(=O)c1cscc1-c1ncccn1 [Example 35, 4-({(3R,6R)-6-methyl-1-[(4-pyrimidin-2-ylthiophen-3-yl)carbonyl]piperidin-3-yl}oxy)furo[3,4-c]pyridin-1(3H)-one]
IC50 (hOX1R): 10000 nM
IC50 (human orexin-2 receptor): 20 nM

C[C@@H]1CC[C@@H](Oc2nccc3c2COC3=O)CN1C(=O)c1ccccc1-c1ncccn1 [Example 36, 4-({(3R,6R)-6-methyl-1-[(2-pyrimidin-2-ylphenyl)car-bonyl]piperidin-3-yl}oxy)furo[3,4-c]pyridin-1(3H)-one]
IC50 (hOX1R): 3100 nM
IC50 (human orexin-2 receptor): 20 nM

C[C@@H]1CC[C@@H](Oc2nccc3c2COC3=O)CN1C(=O)c1ccsc1-c1ncccn1 [Example 37, 4-({(3R,6R)-6-methyl-1-[(2-pyrimidin-2-ylthiophen-3-yl)carbonyl]piperidin-3-yl}oxy)furo[3,4-c]pyridin-1(3H)-one]
IC50 (hOX1R): 6160 nM
IC50 (human orexin-2 receptor): 27 nM

C[C@@H]1CC[C@@H](Oc2cccc3c2C(=O)OC3(C)C)CN1C(=O)c1ccccc1-n1nccn1 [Example 38, 3,3-Dimethyl-7-{[(3R,6R)-6-methyl-1-{[2-(2H-1,2,3-triazol-2-yl)phenyl]carbonyl}piperidin-3-yl]oxy}-2-benzofuran-1(3H)-one]
IC50 (hOX1R): 10000 nM
IC50 (human orexin-2 receptor): 169 nM

C[C@@H]1CC[C@@H](Nc2nccc3c2C(=O)OC3(C)C)CN1C(=O)c1ccccc1-n1nccn1 [Example 39, 1,1-Dimethyl-4-{[(3R,6R)-6-methyl-1-{[2-(2H-1,2,3-triazol-2-yl)phenyl]carbonyl}piperidin-3-yl]amino}furo[3,4-c]pyridin-3(1H)-one]
IC50 (hOX1R): 5880 nM
IC50 (human orexin-2 receptor): 49 nM

C[C@@H]1CC[C@@H](Nc2nccc3c2C(=O)OC3)CN1C(=O)c1ccccc1-n1nccn1 [Example 40, 4-{[(3R,6R)-6-Methyl-1-{[2-(2H-1,2,3-triazol-2-yl)phenyl]carbonyl}piperidin-3-yl]amino}furo[3,4-c]pyridin-3(1H)-one]
IC50 (hOX1R): 10000 nM
IC50 (human orexin-2 receptor): 136 nM

C[C@@H]1CC[C@@H](Nc2nccc3c2C(=O)OC3(C)C)CN1C(=O)c1ccccc1-n1ncnn1 [Example 41, 1,1-Dimethyl-4-{[(3R,6R)-6-methyl-1-{[2-(2H-tetrazol-2-yl)phenyl]carbonyl}piperidin-3-yl]amino}furo[3,4-c]pyridin-3(1H)-one]
IC50 (hOX1R): 10000 nM
IC50 (human orexin-2 receptor): 15 nM

C[C@@H]1CC[C@@H](Nc2nccc3c2C(=O)OC3(C)C)CN1C(=O)c1ccccc1-c1ncccn1 [Example 42, 1,1-dimethyl-4-({(3R,6R)-6-methyl-1-[(2-pyrimidin-2-ylphenyl)carbonyl]-piperidin-3-yl}amino)furo[3,4-c]pyridin-3(1H)-one]
IC50 (hOX1R): 2860 nM
IC50 (human orexin-2 receptor): 26 nM
